From patent US11998014B1, “O-{1-[(3,5-dinitrobenzoyl)amino]propan-2-yl} (4-chlorophenyl)carbamothioate as an eco-friendly insecticidal agent against Spodoptera littoralis (boisd.)” (KING FAISAL UNIVERSITY, priority 2024, dated 2024)
Values after ≈ are worked out from the molar mass of the structure shown. Where two headings read alike, the source gives them in different places.

Experiments:
Spodoptera littoralis = assay: Insecticidal leaf dip bioassay on S. littoralis larvae (castor bean leaf discs); format: in vivo, Spodoptera littoralis (cotton leafworm, laboratory strain); details: for Toxicity index %: 72 hours, fenoxycarb's LC50 / compound's LC50 * 100; for LC50: Spodoptera littoralis, in Gossypium hirsutum, foliar, 72 h
Experimental: Five concentrations (200, 100, 50, 25, 12.5 ppm) were designed for this synthetic compound and the reference fenoxycarb's compound as the dynamic ingredients based on ppm via diluting the commercial formulation.
In this experiment, the synthetic compound was tested for its insecticidal bioactivity using the industry-standard leaf dip bioassay techniques. Preparation of the compound stocks to create […], 0.1 g of compounds 2 were dissolved in five mL of Dimethyl formamide & combined with 5 mL of distilled water. Until usage, the stocks were kept in a refrigerator. The target substance test results were noted & the concentrations needed to destroy 50% (LC50) of S. littoralis larvae were calculated. The target compound was employed in five different concentrations, and 0.1% Tween 80 was employed as a surfactant. Castor bean leaf discs (nine centimeters in diameter) were dipped in the concentration under test for ten seconds, then fed to 2th and 4th larvae, which were roughly the same size and housed in glass jars (five pound). Each action carried out 3 times with ten larvae each. The mortality equalized via Abbott's formula. Calculations of mortality setback line were measurably rummage via probity analysis. Harmfulness index was strongminded via sun equations. The mortality results of larval insect were estimated through employing probit analysis through a statistics (LDP-line) equation which estimate the LC50 values with 95% fiducially limits of lower, upper confidence limit and slope.

aquatic insects = details: cited from earlier work

Row | Compound | Toxicity index % (Spodoptera littoralis; 2nd instar larvae) [%] | LC50 (mg/L) at 95% (Spodoptera littoralis; 2nd instar larvae, after 72 hours of treatment, leaf dip) | Toxicity index % (Spodoptera littoralis; 4th instar larvae) [%] | LC50 (Spodoptera littoralis; 2nd instar larvae, after 72 hours of treatment, leaf dip, read-out: LC50 (mg/L) at 95%) [mg/L] | LC50 (Spodoptera littoralis; 4th instar larvae, after 72 hours of treatment, leaf dip, read-out: LC50 (mg/L) at 95%) [mg/L] | LC50 (Spodoptera littoralis; read-out: LC50 (mg/L) at 95%, 2nd instar larvae, after 72 hours of treatment, leaf dip) [mg/L] | LC50 (Spodoptera littoralis; read-out: LC50 (mg/L) at 95%, 4th instar larvae, after 72 hours of treatment, leaf dip) [mg/L] | LC50 (aquatic insects) [mg/L]
1 | CC(CNC(=O)c1cc([N+](=O)[O-])cc([N+](=O)[O-])c1)OC(=S)Nc1ccc(Cl)cc1 (stereo not shown) [Compound 2, O-{1-[(3,5-dinitrobenzoyl)amino]propan-2-yl} (4-chlorophenyl)carbamothioate] | 47.52 | about 12.505 mg/L | 88.23 | 12.5 (≈ 28.5 µM) | ~67.9 (≈ 155 µM) | – | – | –
2 | CCOC(=O)NCCOc1ccc(Oc2ccccc2)cc1 [fenoxycarb] | 100 | – | 100 | – | – | 5.94 (≈ 19.7 µM) | 59.9 (≈ 199 µM) | –
3 | CCc1ccc(C(=O)NN(C(=O)c2cc(C)cc(C)c2)C(C)(C)C)cc1 [tebufenozide] | – | – | – | – | – | – | – | 100 to 1000
